One assay relates to IL23p19 in THP-1 Cells. The experiment in a line: LPS induced IL23p19 in THP-1 cells (IFNγ primed), ELISA. It counts as cell-based. To be noted: Homo sapiens; for IC50: THP-1, LPS, read-out: Cell Assays IC50, IL-23 (LPS, THP-1). On the procedure:
On day 1, 50K/well THP-1 cells were seeded and primed with IFNγ (50 ng/mL) in 384-well plates for about 18 hours in RPMI media with 10% FBS. On day 2, the compound was serially diluted in DMSO from 5 mM in 3-fold dilutions, and then diluted 1:125 in RPMI media with 10% FBS. 50 μL/well 2× compound was added to 50 μL/well THP-1 cells (with IFNγ primed) in duplicate in 384 well tissue culture plates. The cells were pre-incubated with compound for 1 hour at 37° C., 5% CO2 before addition of 10 μL/well 11×LPS to give a final concentration of 1 μg/mL LPS. Day 3, after stimulation for 18 hours at 37° C., 5% CO2, the assay plate was centrifuged and 70 μL/well supernatant was harvested. IL-23p19 protein in 70 μL/well of supernatant was measured by sandwich ELISA, and 25 μl/well Cell Titer Glo reagent was added to the remaining cells to measure compound toxicity.
Maxisorp immuno ELISA plates were pre-coated with 25 μL/well of anti-IL-23p19 capture antibody (2.5 ug/mL) in PBS overnight at room temperature. After washing with 1×PBST, the plates were blocked using 100 μL/well of 1% BSA in PBS for 2 hours at room temperature. The plates were washed three times with 1×PBST and 70 μL/well supernatant were added. The plates were incubated at room temperature for 2 hours with shaking and washed three times with 1×PBST. 25 μL/well of biotin labeled anti-IL-12 (p40/p70) detection antibody (100 ng/mL) in PBS with 1% BSA was added and the plates were incubated at room temperature for 2 hours with shaking. After washing three times with 1× PBST, 25 μL/well of streptavidin-HRP (1:200) in PBS with 1% BSA was added and the plates were incubated at room temperature for 20 minutes with shaking. The plates were washed three times with 1× PBST and 25 μL/well of Super Signal ELISA Pico Chemiluminescent Substrate were added. The plates were read with a luminometer, and the chemiluminescence values were entered into Athena (Rigel) for curve fitting, EC50 calculation, and database storage.
(§1) THP-1 cells (100K in 100 μL/well) were primed with 25 ng/mL IFN-γ for 18 hours at 37° C., 5% CO2. Compound was serially diluted in DMSO from 2.5 mM in 4-fold dilutions, and then diluted 1:125 in RPMI 1640 complete media with 10% FBS. 100 μL/well 2× compound was mixed with the 100 μL/well IFN-7 primed THP-1 in 96 well flat-bottom white tissue culture plates. The cells were pre-incubated with compound for 1 hour at 37° C., 5% CO2 and before addition of 10 μL/well 21×LPS to give a final concentration of […] for LPS. The cells were stimulated with LPS for 18 hours at 37° C., 5% CO2. After centrifugation, 100 μL/well supernatant was extracted by using a multichannel pipette. IL-23p19 or TNF-α protein in the supernatant were measured by sandwich ELISA. The remaining IFN-7 primed THP-1 cell pellets were used to perform cell viability assays to determine compound cell toxicity. The plates were read with a luminometer, and the chemiluminescence values were entered into Athena (Rigel) for curve fitting, EC50 calculation, and database storage.
Maxisorp immuno ELISA plates were pre-coated with 100 μL/well of anti-IL-23p19 capture antibody (2.4 μg/mL) in PBS overnight at room temperature. After washing with 1×PBST, the plates were blocked using 300 μL/well of 1% BSA in PBS for 2 hours at room temperature. The plates were washed three times with 1×PBST and 100 μL/well supernatant was added. The plates were incubated at room temperature for 2 hours with shaking. The plates were washed three times with 1×PBST and 100 μL/well of biotin anti-human IL-12 (p40/70) detection antibody (10 ng/mL) in PBS with 0.1% BSA were added. The plates were incubated at room temperature for 2 hours with shaking. The plates were washed three times with 1×PBST and 100 μL/well streptavidin-HRP (1:200) in PBS with 0.1% BSA was added. The plates were incubated at room temperature for 20 minutes with shaking. […]
Background: An ELISA detects its analyte on a solid surface through an enzyme-linked reagent.

Assay [1] concerns TLR4-induced TNF-α production by human THP-1 cells. The experiment in a line: TLR4-induced TNF-α in THP-1 cells. It counts as cell-based. On the procedure: as §1

SMILES strings stand for the structures.

Usually IC50 stands for the point on the concentration scale where inhibition reaches its midpoint. A word on the EC50: it is the concentration at which the effect is half-maximal.

Regarding `CCO[C@H]1CC[C@H](n2cc(NC(=O)c3csc(-c4cn[nH]c4)n3)c(-c3nc(F)ccc3F)n2)CC1` [Comparison-1, reference compound], in the assay on IL23p19 in THP-1 Cells, the IC50 was 63 nM.

As for `CCO[C@H]1CC[C@H](n2cc(NC(=O)c3csc(-c4cn[nH]c4)n3)c(-c3ncccn3)n2)CC1` [Compound I-1, N-(1-((1r,4r)-4-ethoxycyclohexyl)-3-(pyrimidin-2-yl)-1H-pyrazol-4-yl)-2-(1H-pyrazol-4-yl)thiazole-4-carboxamide], the IC50 with IL23p19 in THP-1 Cells amounted to 8 nM. Moreover, the EC50 in the assay with IL23p19 in THP-1 Cells (THP-1 cells IFNγ primed, LPS 1 μg/mL, 18 h, read-out: IL23-p19 ELISA, THP1-IFNy, LPS, 10 pt EC50) came out at 8 nM. In assay [1], the “TLR4-induced TNF-α production by human THP-1 cells” value is “inhibits”.

Source of the values: patent US12384775B2, “Pyrimid-2-yl-pyrazole compounds as IRAK inhibitors” (Rigel Pharmaceuticals, Inc., priority 2022, dated 2025).
